Experimental data from US20240018161A1, “MODULATORS OF CYSTIC FIBROSIS TRANSMEMBRANE CONDUCTANCE REGULATOR” (VERTEX PHARMACEUTICALS INCORPORATED, priority 2020, published 2024).
Like-named read-outs stand apart in the source and are kept apart here.

Target: CFTR-mediated chloride transport in human intestinal epithelial enteroid cells (Homo sapiens, UniProt P13569)
Assay: Membrane potential dye, Enteroid Assay A
Assay type: cell-based
Conditions: for EC50: read-out: Ent. A EC50
Method: Base medium (ADF+++) consisted of Advanced DMEM/Ham's F12, 2 mM Glutamax, 10 mM HEPES, […] penicillin/streptomycin.
Bath 1 Buffer consisted of 1 mM MgCl2, 160 mM NaCl, 4.5 mM KCl, 10 mM HEPES, 10 mM Glucose, 2 mM CaCl2.
Chloride Free Buffer consisted of 1 mM Magnesium Gluconate, 2 mM Calcium Gluconate, 4.5 mM Potassium Gluconate, 160 mM Sodium Gluconate, 10 mM HEPES, 10 mM Glucose.
Bath1 Dye Solution consisted of Bath 1 Buffer, 0.04% Pluronic F127, 20 μM Methyl Oxonol, 30 μM CaCCinh-A01, 30 μM Chicago Sky Blue.
Chloride Free Dye Solution consisted of Chloride Free Buffer, 0.04% Pluronic F127, 20 μM Methyl Oxonol, 30 μM CaCCinh-A01, 30 μM Chicago Sky Blue.
3. Enteroid Cell Harvesting and Seeding
Cells were recovered in cell recovery solution, collected by centrifugation at 650 rpm for 5 min at 4° C., resuspended in TryPLE and incubated for 5 min at 37° C. Cells were then collected by centrifugation at 650 rpm for 5 min at 4° C. and resuspended in IEMM containing 10 μM ROCK inhibitor (RI).
4. Membrane Potential Dye, Enteroid Assay A
Briefly, cells were washed 5 times in Bath 1 Buffer. Bath 1 Dye Solution was added, and the cells were incubated for 25 min at room temperature. Following dye incubation, cells were washed 3 times in Chloride Free Dye Solution. Chloride transport was initiated by addition of Chloride Free Dye Stimulation Solution and the fluorescence signal was read for 15 min. […] Chloride transport was then expressed as a percentage of the chloride transport following treatment with 3 μM N-[(6-amino-2-pyridyl)sulfonyl]-6-(3-fluoro-5-isobutoxy-phenyl)-2-[(4S)-2,2,4-trimethylpyrrolidin-1-yl]pyridine-3-carboxamide, 3 μM (R)-1-(2,2-difluorobenzo[d][1,3]dioxol-5-yl)-N-(1-(2,3-dihydroxypropyl)-6-fluoro-2-(1-hydroxy-2-methylpropan-2-yl)-1H-indol-5-yl)cyclopropanecarboxamide and 300 nM acute N-[2,4-bis(1,1-dimethylethyl)-5-hydroxyphenyl]-1,4-dihydro-4-oxoquinoline-3-carboxamide triple combination control (% Activity).

Chain of CFTR-mediated chloride transport in human intestinal epithelial enteroid cells (P13569 with tags, fused parts or gaps DEL508-508): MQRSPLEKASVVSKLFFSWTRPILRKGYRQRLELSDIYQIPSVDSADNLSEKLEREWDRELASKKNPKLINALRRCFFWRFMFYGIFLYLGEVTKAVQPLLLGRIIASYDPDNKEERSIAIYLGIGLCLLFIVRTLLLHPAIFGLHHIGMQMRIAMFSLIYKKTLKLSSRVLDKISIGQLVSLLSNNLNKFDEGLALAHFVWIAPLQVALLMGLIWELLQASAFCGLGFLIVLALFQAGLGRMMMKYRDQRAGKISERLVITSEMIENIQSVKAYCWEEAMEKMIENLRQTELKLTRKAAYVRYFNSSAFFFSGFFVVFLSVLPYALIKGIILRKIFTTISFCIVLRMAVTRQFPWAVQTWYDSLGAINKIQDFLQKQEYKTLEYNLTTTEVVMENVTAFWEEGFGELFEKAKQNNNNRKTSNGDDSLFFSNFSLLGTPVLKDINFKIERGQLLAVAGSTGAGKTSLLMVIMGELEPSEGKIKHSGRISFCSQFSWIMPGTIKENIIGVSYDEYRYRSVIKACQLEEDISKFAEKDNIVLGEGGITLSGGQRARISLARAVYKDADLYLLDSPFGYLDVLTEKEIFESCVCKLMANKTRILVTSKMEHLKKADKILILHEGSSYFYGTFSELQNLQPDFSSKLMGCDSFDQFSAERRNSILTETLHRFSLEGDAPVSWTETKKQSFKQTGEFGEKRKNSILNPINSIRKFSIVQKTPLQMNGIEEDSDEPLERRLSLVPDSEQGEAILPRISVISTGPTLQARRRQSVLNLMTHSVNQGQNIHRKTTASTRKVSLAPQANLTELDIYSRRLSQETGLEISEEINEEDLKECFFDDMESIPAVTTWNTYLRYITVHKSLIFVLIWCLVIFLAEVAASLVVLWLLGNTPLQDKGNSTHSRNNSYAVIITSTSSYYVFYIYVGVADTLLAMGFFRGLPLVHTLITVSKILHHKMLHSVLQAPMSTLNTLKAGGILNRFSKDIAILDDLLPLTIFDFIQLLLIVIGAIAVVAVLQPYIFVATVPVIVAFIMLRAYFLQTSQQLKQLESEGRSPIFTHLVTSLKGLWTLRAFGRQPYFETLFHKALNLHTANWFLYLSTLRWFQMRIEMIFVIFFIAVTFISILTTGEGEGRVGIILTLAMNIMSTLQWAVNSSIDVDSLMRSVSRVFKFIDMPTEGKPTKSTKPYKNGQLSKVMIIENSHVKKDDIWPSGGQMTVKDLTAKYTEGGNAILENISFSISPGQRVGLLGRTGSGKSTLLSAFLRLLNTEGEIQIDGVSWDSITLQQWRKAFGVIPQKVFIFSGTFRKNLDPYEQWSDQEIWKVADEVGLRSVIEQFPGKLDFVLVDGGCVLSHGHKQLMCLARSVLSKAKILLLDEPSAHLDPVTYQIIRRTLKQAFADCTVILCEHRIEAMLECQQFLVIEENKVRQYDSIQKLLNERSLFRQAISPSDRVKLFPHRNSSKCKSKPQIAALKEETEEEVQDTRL

Compound | Ent. A Max Activity (%) (Enteroid Assay A) | EC50 (Enteroid Assay A) | also measured
Cc1cccc(C)c1-c1cc2nc(n1)NS(=O)(=O)c1cccc(c1)C(=O)N1CCN(C3CC4(CCCCC4)C3)C[C@H](C1)O2 [Compound 3, (16R)-12-(2,6-Dimethylphenyl)-18-{spiro[3.5]nonan-2-yl}-15-oxa-8λ^6-thia-1,9,11,18,22-pentaazatetracyclo[14.4.1.13,7.110,14]tricosa-3(23),4,6,10(22),11,13-hexaene-2,8,8-trione] | +++ (+++ is >600%) | < 1 µM | 
Cc1cccc(C)c1-c1cc2nc(n1)NS(=O)(=O)c1cccc(c1)C(=O)N1CCN(C3CCC(F)(F)CC3)C[C@H](C1)O2 [Compound 4, (16R)-18-(4,4-Difluorocyclohexyl)-12-(2,6-dimethylphenyl)-15-oxa-8λ^6-thia-1,9,11,18,22-pentaazatetracyclo[14.4.1.13,7.110,14]tricosa-3(23),4,6,10(22),11,13-hexaene-2,8,8-trione] | +++ (+++ is >600%) | < 1 µM | 
Cc1cccc(C)c1-c1cc2nc(n1)NS(=O)(=O)c1cccc(c1)C(=O)N1CCN(C3CCC(C)(C)CC3)C[C@H](C1)O2 [Compound 5, (16R)-18-(4,4-Dimethylcyclohexyl)-12-(2,6-dimethylphenyl)-15-oxa-8λ^6-thia-1,9,11,18,22-pentaazatetracyclo[14.4.1.13,7.110,14]tricosa-3(23),4,6,10,12,14(22)-hexaene-2,8,8-trione] |  |  | Ent. A Max Activity (%): +++ (key: +++ is >600%; ++ is 30-60%; + is <30%); EC50: < 1 µM
Cc1cccc(C)c1-c1cc2nc(n1)NS(=O)(=O)c1cccc(c1)C(=O)N1CCN(C3CCCC3)C[C@H](C1)O2 [Compound 6, (16R)-18-cyclopentyl-12-(2,6-dimethylphenyl)-8,8-dioxo-15-oxa-8λ^6-thia-1,9,11,18,22-pentazatetracyclo[14.4.1.13,7.110,14]tricosa-3,5,7(23),10(22),11,13-hexaen-2-one] | +++ (+++ is >600%) | < 1 µM | 
Cc1cccc(C)c1-c1cc2nc(n1)NS(=O)(=O)c1cccc(c1)C(=O)N1CCN(C3CC4(CCCC4)C3)C[C@H](C1)O2 [Compound 8, (16R)-12-(2,6-Dimethylphenyl)-18-{spiro[3.4]octan-2-yl}-15-oxa-8λ^6-thia-1,9,11,18,22-pentaazatetracyclo[14.4.1.13,7.110,14]tricosa-3(23),4,6,10(22),11,13-hexaene-2,8,8-trione] | +++ (+++ is >600%) | < 1 µM | 
CCC(CC)N1CCN2C[C@@H](C1)Oc1cc(-c3c(C)cccc3C)nc(n1)NS(=O)(=O)c1cccc(c1)C2=O [Compound 11, (16R)-12-(2,6-Dimethylphenyl)-18-(1-ethylpropyl)-8,8-dioxo-15-oxa-8λ^6-thia-1,9,11,18,22-pentazatetracyclo[14.4.1.13,7.110,14]tricosa-3,5,7(23),10,12,14(22)-hexaen-2-one] | +++ (+++ is >600%) | < 1 µM | 
Cc1cccc(C)c1-c1cc2nc(n1)NS(=O)(=O)c1cccc(c1)C(=O)N1CCN(C3CCC4(CCCCC4)CC3)C[C@H](C1)O2 [Compound 12] | +++ (+++ is >600%) | < 1 µM | 
Cc1cccc(C)c1-c1cc2nc(n1)NS(=O)(=O)c1cccc(c1)C(=O)N1CCN(C3CCC4(CC3)CC4)C[C@H](C1)O2 [Compound 13] | +++ (+++ is >600%) | < 1 µM | 
Cc1cccc(C)c1-c1cc2nc(n1)NS(=O)(=O)c1cccc(c1)C(=O)N1CCN(CC3(C)CCOCC3)C[C@H](C1)O2 [Compound 14] | +++ (+++ is >600%) | < 1 µM | 
Cc1cccc(C)c1-c1cc2nc(n1)NS(=O)(=O)c1cccc(c1)C(=O)N1CCN(C3CCC4CC43)C[C@H](C1)O2 (stereo partly drawn) [Compound 15] | +++ (+++ is >600%) | < 1 µM | 
Cc1cccc(C)c1-c1cc2nc(n1)NS(=O)(=O)c1cccc(c1)C(=O)N1CCN(Cc3ccc(C(C)(C)C)cc3)C[C@H](C1)O2 [Compound 16] | +++ (+++ is >600%) | < 1 µM | 
Cc1cccc(C)c1-c1cc2nc(n1)NS(=O)(=O)c1cccc(c1)C(=O)N1CCN(CC3C4(CC4)C34CC4)C[C@H](C1)O2 [Compound 17] | +++ (+++ is >600%) | < 1 µM | 
Cc1cccc(C)c1-c1cc2nc(n1)NS(=O)(=O)c1cccc(c1)C(=O)N1CCN(CCC3C4(CC4)C34CC4)C[C@H](C1)O2 [Compound 18] | + (+ is <30%) | 1 to 3 µM | 
Cc1cccc(C)c1-c1cc2nc(n1)NS(=O)(=O)c1cccc(c1)C(=O)N1CCN(CC(C)(C)C)C[C@H](C1)O2 [Compound 19] | +++ (+++ is >600%) | < 1 µM | 
Cc1cccc(C)c1-c1cc2nc(n1)NS(=O)(=O)c1cccc(c1)C(=O)N1CCN(C3C(C)(C)CC3(C)C)C[C@H](C1)O2 [Compound 20] | +++ (+++ is >600%) | < 1 µM | 
Cc1cccc(C)c1-c1cc2nc(n1)NS(=O)(=O)c1cccc(c1)C(=O)N1CCN(C3CC(F)(F)C3)C[C@H](C1)O2 [Compound 21] | +++ (+++ is >600%) | < 1 µM | 
Cc1cccc(C)c1-c1cc2nc(n1)NS(=O)(=O)c1cccc(c1)C(=O)N1CCN(C3CCCCC3)C[C@H](C1)O2 [Compound 22] | +++ (+++ is >600%) | < 1 µM | 
Cc1cccc(C)c1-c1cc2nc(n1)NS(=O)(=O)c1cccc(c1)C(=O)N1CCN(C3CC4(CC4)C3)C[C@H](C1)O2 [Compound 23] | +++ (+++ is >600%) | < 1 µM | 
Cc1cccc(C)c1-c1cc2nc(n1)NS(=O)(=O)c1cccc(c1)C(=O)N1CCN(C3CC(C)(C)C3)C[C@H](C1)O2 [Compound 24] | ++ (++ is 30-60%) | < 1 µM | 
Cc1cccc(C)c1-c1cc2nc(n1)NS(=O)(=O)c1cccc(c1)C(=O)N1CCN(C3CC4(COC4)C3)C[C@H](C1)O2 [Compound 25] | ++ (++ is 30-60%) | 3 to 30 µM | 
Cc1cccc(C)c1-c1cc2nc(n1)NS(=O)(=O)c1cccc(c1)C(=O)N1CCN(C3CC4(CCC4)C3)C[C@H](C1)O2 [Compound 26] | +++ (+++ is >600%) | < 1 µM | 
Cc1cccc(C)c1-c1cc2nc(n1)NS(=O)(=O)c1cccc(c1)C(=O)N1CCN(C3CCC3)C[C@H](C1)O2 [Compound 27] | ++ (++ is 30-60%) | < 1 µM | 
Cc1cccc(C)c1-c1cc2nc(n1)NS(=O)(=O)c1cccc(c1)C(=O)N1CCN(C3CCOCC3)C[C@H](C1)O2 [Compound 28] | +++ (+++ is >600%) | 3 to 30 µM | 
Cc1cccc(C)c1-c1cc2nc(n1)NS(=O)(=O)c1cccc(c1)C(=O)N1CCN(CC3CC(C(=O)O)C3)C[C@H](C1)O2 (stereo partly drawn) [Compound 29] | +++ (+++ is >600%) | 3 to 30 µM | 
Cc1cccc(C)c1-c1cc2nc(n1)NS(=O)(=O)c1cccc(c1)C(=O)N1CCN(CC3CCOC3)C[C@H](C1)O2 (stereo partly drawn) [Compound 30] | +++ (+++ is >600%) | 1 to 3 µM | 
CCCN1CCN2C[C@@H](C1)Oc1cc(-c3c(C)cccc3C)nc(n1)NS(=O)(=O)c1cccc(c1)C2=O [Compound 31] | +++ (+++ is >600%) | < 1 µM | 
CCCCN1CCN2C[C@@H](C1)Oc1cc(-c3c(C)cccc3C)nc(n1)NS(=O)(=O)c1cccc(c1)C2=O [Compound 32] | +++ (+++ is >600%) | < 1 µM | 
Cc1cccc(C)c1-c1cc2nc(n1)NS(=O)(=O)c1cccc(c1)C(=O)N1CCN(CCCCO)C[C@H](C1)O2 [Compound 33] | +++ (+++ is >600%) | 3 to 30 µM | 
CCOC(=O)C1CC1CN1CCN2C[C@@H](C1)Oc1cc(-c3c(C)cccc3C)nc(n1)NS(=O)(=O)c1cccc(c1)C2=O (stereo partly drawn) [Compound 34] | +++ (+++ is >600%) | < 1 µM | 
Cc1cccc(C)c1-c1cc2nc(n1)NS(=O)(=O)c1cccc(c1)C(=O)N1CCN(CC3CC3)C[C@H](C1)O2 [Compound 35, (16R)-18-(Cyclopropylmethyl)-12-(2,6-dimethylphenyl)-8,8-dioxo-15-oxa-8λ^6-thia-1,9,11,18,22-pentazatetracyclo[14.4.1.13,7.110,14]tricosa-3,5,7(23),10(22),11,13-hexaen-2-one] |  |  | EC50 (enteroid cells incubated with test compound 18-24 hours, acute 10 μM forskolin and 300 nM N-[2,4-bis(1,1-dimethylethyl)-5-hydroxyphenyl]-1,4-dihydro-4-oxoquinoline-3-carboxamide): < 1 µM; Ent. A Max Activity (%) (percentage of chloride transport of triple combination control (3 μM N-[(6-amino-2-pyridyl)sulfonyl]-6-(3-fluoro-5-isobutoxy-phenyl)-2-[(4S)-2,2,4-trimethylpyrrolidin-1-yl]pyridine-3-carboxamide based)): +++ (+++ is >60%)
